# Test results: PMC6156138, “Combination of a Latency-Reversing Agent With a Smac Mimetic Minimizes Secondary HIV-1 Infection in vitro” (Frontiers in Microbiology, 2018)
# Where two headings read alike, the source gives them in different places.
# Columns and labels:
# [1] = test system: PBMCs from a cART-treated HIV-1 patient; test: Cytotoxicity in PBMCs from HIV-1-infected patient (PI staining, flow cytometry); type: cell-based, human; details: PBMCs of cART-treated HIV-1 patient, 24 h; birinapant 50 nM, PEP005 5 nM
# Experimental: Supplementary file Data_Sheet_3.PDF: FIGURE S3 The combined effect of birinapant (50 nM) and PEP005 (5 nM) on cytotoxicity in PBMCs obtained from HIV-1-infected patients. PBMCs from a cART-treated HIV-1 patient were cultured for 24 h in the presence or absence of drug(s), and the percentage of propidium iodide (PI)^+ cells were measured by flow cytometric analysis. Click here for additional data file.
# cIAP = test: Determination of cIAP expression (western blotting); type: cell-based; details: ACH-2 cells, 24 h; birinapant 50 nM, PEP005 5 nM, TNF-α 10 ng/ml
# Experimental: ACH-2 cells (1 × 10^6 cells/ml) were treated with different concentrations of the drug for 24 h, and the cells were washed twice with PBS. Cells were homogenized by CelLytic M Cell Lysis Reagent (Sigma-Aldrich, St. Louis, MO, United States) containing a protease inhibitor cocktail (Nacalai Tesque, Kyoto, Japan) and were incubated at room temperature (RT) for 15 min. The cells were then centrifuged at 13,000 rpm for 15 min, and the supernatant of the whole cell lysate was collected. The bicinchoninic acid (BCA) protein assay (Thermo Scientific, Rockford, IL, United States) was used to measure the actual protein amount in the treated and untreated cells. The protein extracts were separated through sodium dodecyl sulfate polyacrylamide gel electrophoresis (SDS-PAGE) and then were blotted onto a Trans Blot Turbo polyvinylidene difluoride (PVDF) membrane (Bio-Rad, Hercules, CA, United States). Protein bands were visualized using 3,3′,5,5′-tetramethylbenzidine (TMB) solution (Wako Pure Chemical). The sources of the antibodies were as follows: c-IAP1 (D5G9), c-IAP2 (58C7), and XIAP (3B6) were purchased from Cell Signaling Technology (Danvers, MA, United States); β-actin (C4) was purchased from Santa Cruz Biotechnology.
# Supplementary file Data_Sheet_5.PDF: FIGURE S5 Western blotting (WB) analysis for IAP family proteins in ACH-2 cells. Cells were exposed to birinapant (50 nM) in the presence or absence of PEP005 (5 nM), with TNF-α (10 ng/ml) co-treatment for 24 h, and cell lysates were used for WB analysis. Click here for additional data file.
# [2] = Toxicity on PHA-stimulated PBMCs from healthy donor (WST-8 assay); type: cell-based; details: human
# Experimental: Table S1. CC50 values on PHA-stimulated PBMCs from healthy donor
# PBMCs (2 x 10^6 cells/ml) were treated with birinapant or PEP005 and cultured for 3days. Cell viability was
# Table S2. Toxicity of PEP005 and birinapant in combination
# Agent (concentration) % replication
# PEP005 (1 µM) + birinapant (1 µM) 65.5 %
# PBMCs (2 x 10^6 cells/ml) were treated with birinapant (10 nM - 10 µM) and/or PEP005 (10 nM - 100 µM)
# and cultured for 3 days. Cell viability was measured by WST-8 assay.
# ACH-2 cells = test: Living cell numbers of ACH-2 cells in the presence of drug(s); type: cell-based; details: birinapant 50 nM; for cell toxicity / replication of ACH-2 cells: PEP005 5 nM (Figure 2C)
# Experimental: (§1) FIGURE 2 (A) Effect of birinapant when combined with TNF-α. The supernatant p24 levels with birinapant (1∼100 nM) in ACH-2 cell culture on day 2 are shown in white bars, and p24 values with birinapant when combined with TNF-α (10 ng/ml) are shown in black bars. (B) HIV-1 production from ACH-2 cells when reactivated by PEP005 (0.05∼50 nM) for 24 h. (C) Changes in the living cell numbers in the presence of drug(s) on days 1, 3, and 5.
# [3] = Cytotoxicity assay (Cytotoxicity LDH Assay Kit); type: cell-based; details: human
# Experimental: To determine the cytotoxicity induced by LRAs and its related compounds, cells (5 × 10^5 cells/mL) were cultured in the presence or absence of LRA. After 24 h, cytotoxicity assays were performed using a Cytotoxicity LDH Assay Kit (Dojindo, Kumamoto, Japan) according to the manufacturer’s instructions. The number of living cells with the drug was measured and compared with those without the drug, and data are shown as percentage (%) of control.
# [4] = test system: latent HIV-1-infected U1 cells; test: HIV reactivation from latent cells: supernatant p24 antigen; type: cell-based; details: day 2, single drug (Figure 1B)
# Experimental: (§2) The reactivation of HIV-1 from latently infected cells was determined by the measurement of supernatant p24 antigen and intracellular HIV-1 RNA levels. ACH-2 cells or U1 cells (5 × 10^5 cells/mL) were placed in 96-well plates, and then the cells were incubated with different concentrations of drugs for 24 h to extract RNA and for 48 h to collect the supernatant. The increase in supernatant p24 antigen levels was measured using […] G1200 (Fujirebio, Tokyo, Japan). The total RNA was extracted using an RNeasy Mini Kit (Qiagen, Hilden, Germany), following the manufacturer’s protocols. The cDNA was synthesized using PrimeScript RT Master Mix (Takara Bio, Shiga, Japan), and quantitative real-time PCR analyses for the intracellular HIV-1 RNA were carried out with PowerUp^TM SYBR Green Master Mix (Applied Biosystems, Foster City, CA, United States). The oligonucleotide primers used were as follows: 5′-[…]-3′ (forward) and 5′-[…]-3′ (reverse) for HIV-RNA detection; 5′-[…]-3′ (forward) and 5′-[…]-3′ (reverse) for β-actin. The HIV-RNA expressions were normalized with that of β-actin, which was indicated as the relative quantity, and the increase in HIV-1 RNA levels in the presence of a drug was compared with that without a drug.
# (§3) FIGURE 1 (A,B) The increase in viral production from ACH-2 cells (A) and U1 cells (B) was examined by supernatant p24 antigen levels on day 2. (C,D) Changes in the intracellular HIV-1 mRNA levels due to treatment with these drugs in ACH-2 cells (C) and U1 cells (D) after 24 h of incubation.
# [5] = test system: latent HIV-1-infected ACH-2 cells; test: as above; type: cell-based; details: for viral production (supernatant p24 antigen levels): day 2, single drug (Figure 1A)
# Experimental: as §2, §3, §1
# [6] = A3.01 cells, read-out: CC50 ± SD against A3.01
# [7] = ACH-2 cells, read-out: CC50 ± SD against ACH-2
# [8] = HL-60 cells, read-out: CC50 ± SD against HL-60
# [9] = J1.1 cells, read-out: CC50 ± SD against J1.1
# [10] = Jurkat cells, read-out: CC50 ± SD against Jurkat
# [11] = OM10.1 cells, read-out: CC50 ± SD against OM10.1
# [12] = U1 cells, read-out: CC50 ± SD against U1
# [13] = U937 cells, read-out: CC50 ± SD against U937
Compound,ratio of dead cells (PI staining) [1],cIAP expression (western blotting) (cIAP),"CC50 at 3 days ([2]; PHA-stimulated PBMCs from healthy donor, 3 days, WST-8 assay, read-out: CC50 (µM) ± SD)",cell toxicity / replication of ACH-2 cells (ACH-2 cells),"number of living cells (ACH-2 cells; day 5, PEP005 5 nM)","CC50 at 24 h [3, 6]","CC50 at 24 h [3, 7]","CC50 at 24 h [3, 8]","CC50 at 24 h [3, 9]","CC50 at 24 h [3, 10]","CC50 at 24 h [3, 11]","CC50 at 24 h [3, 12]","CC50 at 24 h [3, 13]",viral production (supernatant p24 antigen levels) [4],"supernatant HIV-1 p24 levels ([5]; ACH-2 cells, after 24 h, PEP005 5 nM and higher (Figure 2B))","increase of supernatant HIV-1 p24 levels compared with unstimulated ACH-2 cells ([5]; ACH-2 cells, day 2 (Figure 1A))",viral production (supernatant p24 antigen levels) ([5]; ACH-2 cells),CC50 at 3 days [2],"decrease of supernatant p24 levels ([5]; ACH-2 cells reactivated by PEP005 (or TNF-α), simultaneously treated with birinapant 50 nM, 24 h)","supernatant p24 antigen levels ([5]; ACH-2 cells, birinapant 1∼100 nM alone, day 2 (Figure 2A))"
"C/C=C(/C)C(=O)O[C@H]1C(C)=C[C@]23C(=O)[C@@H](C=C(CO)[C@@H](O)[C@]12O)[C@H]1[C@@H](C[C@H]3C)C1(C)C [PEP005, ingenol-3-angelate]",failed to increase the number of dead cells,upregulation of cIAP-1 (and cIAP-2),> 100 µM,strongly inhibited the replication of ACH-2 cells,370000 mL⁻¹,47 ± 9 µM,19 ± 0.4 µM,> 100 µM,44 ± 2 µM,16 ± 3 µM,84 ± 6 µM,> 100 µM,> 100 µM,increased viral production,reactivated and increased the supernatant HIV-1 p24 levels,> 100 fold,increased viral production,–,–,–
CC[C@H](NC(=O)[C@H](C)NC)C(=O)N1C[C@@H](O)C[C@H]1Cc1c(-c2[nH]c3cc(F)ccc3c2C[C@@H]2C[C@H](O)CN2C(=O)[C@H](CC)NC(=O)[C@H](C)NC)[nH]c2cc(F)ccc12 [Birinapant],slightly increased the ratio of dead cells,decreased expression of cIAP,–,failed to show cell toxicity,–,0.2 ± 0.08 µM,> 100 µM,> 100 µM,48 ± 0.9 µM,13 ± 0.1 µM,53 ± 8 µM,> 100 µM,> 100 µM,only had a minor effect on HIV-1 reactivation,–,–,only had a minor effect on HIV-1 reactivation,10.7 ± 0.2 µM,~40%,failed to affect supernatant p24 antigen levels
